Patent US20250025439A1, “DERIVATIVES OF NIFUROXAZIDE FOR USE IN THE TREATMENT OF MITOCHONDRIAL DISORDERS AND NEURODEGENERATIVE DISEASES” (priority 2021, published 2025)

Tests used:
Assay type in all cases: cell-based, human
patient motor neurons = experiment: Electron microscopy of mitochondrial morphology in iPSC-derived motor neurons; settings: NFX 0.5 μM, 72 h
Procedure: Cells were seeded on 24 wells/plate, fixed with 1.6% glutaraldehyde in 0.1 M cacodylate buffer (pH 7.4) for 2 hours, rinsed and postfixed in 1% osmium tetroxide and 1% potassium ferrocyanide in 0.1 M cacodylate buffer before to processed for ultrastructure as previously described (Bannwarth et al., Brain, 2014, 137, 2329-2345). The protocol for contrasting sections was slightly modified, using a 5% Lanthanide salt solution (a mixture of Gadolinium acetate and Samarium acetate) for 7 minutes instead of uranium acetate. The cells were examined under a JEOL 1400 transmission electron microscope. The ultrastructure of mitochondria was classified in three categories. Normal: the mitochondria have numerous, parallel and well organized cristae. Intermediary: the mitochondria have less cristae, they show few round or swollen cristae or have a mild disorganisation. Abnormal: the mitochondria have swollen, disorganized or no cristae. More than 100 mitochondria were classified per condition. iPSC clones were generated from human fibroblasts as previously described (Genin et al., Acta Neuropathol., 2019, 138, 123-145). Motor neurons were differentiated from iPSC using previously described and validated protocols with some modifications. Briefly, iPSC clones were detached by Accutase treatment to form small clusters. […]

STAT3 = experiment: Western blot of STAT3 expression after treatment; settings: patient and control fibroblasts, NFX 1 or 5 μM, 72 h
Procedure: The concentration of proteins was determined using the Pierce BCA assay kit (Thermo Fisher Scientific). 20 μg of total protein extracts were separated on acrylamide-SDS gels and transferred to PVDF membranes (Millipore). Signals were detected using a chemoluminescence system (Immobilon Western HRP Chemilumiscent substrates, Millipore). ImageJ was used to quantify protein signals. Nifuroxazide (46494-100MG Sigma) was resuspended in DMSO at 50 mM and stocked at −20° C. For each treatment, the Nifuroxazide was diluted in complete medium (Dulbecco's Modified Eagle Medium supplemented with 10% FBS, penicillin (100 U/mL) and streptomycin (0.1 mg/mL)) at the desired concentration. The cell medium was discarded and replaced by the medium with Nifuroxazide. 72 h hours after treatment, the cells were analysed.

[1] = test system: CHCHD10^S59L/+ fibroblasts; experiment: Mitochondrial network analysis after KIF5B siRNA transfection; settings: patient cells, NFX 5 μM, 72 h
Procedure: Cells were incubated with MitoTracker red (Invitrogen) as previously described (Genin et al., EMBO Mol. Med., 2016, 8, 58-72). Fibroblasts were plated on a glass slide in a 60 mm dish. For the mitochondrial staining, the fibroblasts were incubated with MitoTracker Red (Invitrogen) (100 nM) during 15 minutes at 37° C. Then the medium was replaced by fresh medium for two hours at 37° C. The cells were fixed using Paraformaldehyde (Electron Microscopy Science) (4%) diluted in medium, 20 minutes at 37° C. The cells were then washed with PBS and mounted with Prolong Gold Antifade Reagent (Molecular Probes). The slides were analysed using a confocal microscope (Zeiss LSM 880). […] The images were deconvoluted with Huygens Essential Software™ (Scientific Volume Imaging) using a theoretically calculated point spread function (PSF) for each of the dyes. All selected images were iteratively deconvolved with maximum iterations scored 40 and a quality threshold at 0.05. The deconvolved images were used for quantitative mitochondrial network analysis with Huygens Essentiel Software™ with the following standardised set of parameters: threshold=15% and seed=10% for each cell types and garbage=10. The quantitative data were further analysed in Microsoft Excel and GraphPad Prism 8 (GraphPad Software). Mitochondrial network length was quantified for 30 randomly-selected individual cells. […]

## O=C(N/N=C/c1ccc([N+](=O)[O-])o1)c1ccc(O)cc1 [NFX, (E)-4-hydroxy-N′-((5-nitrofuran-2-yl)methylene)benzohydrazide]
Patient motor neurons
  mitochondrial morphology and cristae shape (EM): improved
STAT3
  STAT3 protein level: dose-dependent decrease
  pSTAT3Y705 protein level: dose-dependent decrease
[1]
  effect on the mitochondrial network after inactivation of KIF5B: no longer has an effect
